Reference: paper PMC5410595, “In Vitro and In Silico Antidiabetic and Antimicrobial Evaluation of Constituents from Kickxia ramosissima (Nanorrhinum ramosissimum)” (Frontiers in Pharmacology, 2017)
Read-outs that look alike come from different tables or passages of the source.

Key:
[1] = biological target: T1, α-glucosidase from Saccharomyces cerevisiae (Saccharomyces cerevisiae, UniProt P53341); experiment: α-glucosidase inhibition assay; assay type: biochemical; parameters: inhibition: dose or concentration left out as unconfirmed; conditions: for α-glucosidase % inhibition: at the highest test concentration of 2 mM; for inhibition: read-out: α-glucosidase % inhibition
T1 construct: purchased Sigma-Aldrich
Description: The α-glucosidase assay was carried out according as reported before ([Amin et al., 2016]). The test protocol is attached as Supplementary Material ([Amin et al., 2016]).
81 Inhibition of α-glucosidase.
82 α-Glucosidase inhibitory activity was assayed according to method adopted by Choudhary et al.
83 (2010) with some modifications. Briefly, 50 µL of a solution of α-glucosidase from
84 Saccharomyces cerevisiae (0.2 U/mL in 0.1 M phosphate buffer at pH 6.8, Sigma-Aldrich, St.
85 Louis, MO, USA) was incubated with 20 μL of test compounds or extracts at different
86 concentrations (ranging from 6 mM – 0.372 mM in 25% DMSO for isolated constituents or
87 from 5 mg to 0.039 mg/mL for extracts) at 37 °C for 10 min. Then 50 μl of the substrate,
88 p-nitrophenyl-α-D-glucopyranoside (0.7 mM stock, final concentration 0.29 mM) was added to
89 the reaction mixture and incubated again for 30 min at 37 °C. […]
91 from 834 µg to 6.5 µg/mL for extracts. The reaction was stopped by adding Na2CO3 (100 μl,
92 200 mM stock) solution and the absorbance was measured at 400 nm. Final DMSO
93 concentration remained below 7.5% during the assay.
94 concentration) was used as reference compound.
96 The % inhibition was calculated using the following formula:
98 % Inhibition = 100 – [OD (test sample) / OD (control)] × 100
100 Alpha-glucosidase inhibition was categorized as mild (1-25%), moderate (26-50%), high

15-LOX from soybean = biological target: T2, 15-LOX from soybean (Glycine max, UniProt P08170); experiment: 15-lipoxygenase inhibition assay; assay type: biochemical
T2 sequence (P08170 1-839): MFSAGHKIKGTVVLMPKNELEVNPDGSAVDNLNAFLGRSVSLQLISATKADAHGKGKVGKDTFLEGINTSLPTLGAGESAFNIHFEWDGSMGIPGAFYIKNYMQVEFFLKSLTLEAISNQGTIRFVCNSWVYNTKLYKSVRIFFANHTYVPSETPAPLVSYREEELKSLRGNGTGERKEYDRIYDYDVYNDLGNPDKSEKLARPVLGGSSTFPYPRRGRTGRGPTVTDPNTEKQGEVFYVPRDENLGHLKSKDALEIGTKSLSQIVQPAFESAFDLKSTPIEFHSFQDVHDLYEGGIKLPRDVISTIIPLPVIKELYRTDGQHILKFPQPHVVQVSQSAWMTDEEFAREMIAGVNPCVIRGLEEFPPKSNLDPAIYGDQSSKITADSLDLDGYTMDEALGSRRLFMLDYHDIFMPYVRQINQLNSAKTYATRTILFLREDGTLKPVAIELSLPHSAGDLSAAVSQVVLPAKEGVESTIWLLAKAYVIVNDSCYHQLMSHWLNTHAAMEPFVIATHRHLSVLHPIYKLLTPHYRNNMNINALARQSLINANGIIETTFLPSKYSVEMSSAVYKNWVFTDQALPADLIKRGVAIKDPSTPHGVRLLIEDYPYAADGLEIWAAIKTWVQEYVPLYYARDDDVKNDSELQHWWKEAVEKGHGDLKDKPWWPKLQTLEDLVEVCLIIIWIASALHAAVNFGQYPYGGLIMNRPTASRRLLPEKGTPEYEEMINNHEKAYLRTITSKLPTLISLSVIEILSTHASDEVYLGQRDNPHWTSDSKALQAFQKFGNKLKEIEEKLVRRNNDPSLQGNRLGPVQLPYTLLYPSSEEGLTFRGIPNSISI
Description: The soybean LOX assay is used as an indication of anti-inflammatory activity ([Muller, 1994]), and therefore during the present investigation, 15-LOX from soybean was used for peroxidation of linoleic acid, and inhibition was measured as described previously with slight modifications ([Malterud and Rydland, 2000]). Briefly, 12.5 μL (2–0.062 mM) of sample was dissolved in DMSO, and added to 487.5 μL of enzyme solution (200 U/mL). The mixture was incubated at room temperature for 5 min. Absorbance was recorded immediately after the addition of 500 μL of substrate (250 μM linoleic acid in 0.2 M borate buffer, pH 9) every minute up to 5 min at 234 nm.
% inhibition of enzyme activity was calculated as,
%inhibition of enzyme activity=([ΔA1/Δt]−[ΔA2/Δt])/(ΔA1/Δt)×100
where ΔA1/Δt and ΔA2/Δt are the increase rate in absorbance at 234 nm for sample without test substance and with test substance, respectively.

Staphylococcus aureus = experiment: Antimicrobial screening panel: Staphylococcus aureus; assay type: cell-based
Description: (§1) Fractions and isolated compounds were evaluated for antimicrobial activity in an integrated screening panel, also including the human MRC-5 cell line to assess selectivity, as reported before ([Cos et al., 2006]; [Mesia et al., 2008]; [Baldé et al., 2010]; [Amin et al., 2016]).

[2] = system: Trypanosoma cruzi, Tulahuen LacZ, clone C4; experiment: Antimicrobial screening panel: Trypanosoma cruzi; assay type: cell-based
Description: as §1

Plasmodium falciparum K1 = experiment: Antimicrobial screening panel: Plasmodium falciparum; assay type: cell-based
Description: as §1

[3] = system: MRC-5, human fetal lung fibroblasts
Description: as §1

[4] = at the highest test concentration

T1 sequence (P53341 whole entry): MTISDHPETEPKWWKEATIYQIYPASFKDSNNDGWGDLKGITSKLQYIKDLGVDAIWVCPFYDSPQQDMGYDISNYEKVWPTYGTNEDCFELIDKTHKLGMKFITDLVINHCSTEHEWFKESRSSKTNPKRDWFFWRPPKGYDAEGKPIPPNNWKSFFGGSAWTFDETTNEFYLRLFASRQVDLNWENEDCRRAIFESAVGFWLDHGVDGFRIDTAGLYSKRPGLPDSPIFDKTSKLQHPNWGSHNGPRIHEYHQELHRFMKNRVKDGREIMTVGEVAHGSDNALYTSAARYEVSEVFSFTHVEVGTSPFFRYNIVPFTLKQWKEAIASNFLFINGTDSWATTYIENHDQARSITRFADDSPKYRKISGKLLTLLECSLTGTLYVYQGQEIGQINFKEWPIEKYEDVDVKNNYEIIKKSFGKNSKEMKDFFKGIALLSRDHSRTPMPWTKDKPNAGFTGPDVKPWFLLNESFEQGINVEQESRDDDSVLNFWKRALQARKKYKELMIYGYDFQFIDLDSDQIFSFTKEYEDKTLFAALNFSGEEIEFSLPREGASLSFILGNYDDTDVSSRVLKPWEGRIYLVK

## CO[C@H]1C[C@@]2(O)[C@H](O)[C@@H](O)[C@](C)(OC)[C@H]2[C@@H](OC)O1 [Compound 1, Kickxiasine]
[1]
  α-glucosidase % inhibition: no activity
[1]; listed as compound 1
  α-glucosidase % inhibition: did not present any activity
15-LOX from soybean; [4]
  15-LOX assay % inhibition: 30%

## CC1(O)CCC2C(C(=O)O)=COC(OC3OC(CO)C(O)C(O)C3O)C21 (centres unmarked) [Compound 2, Mussaenosidic acid]
[1]
  inhibition: 15%
15-LOX from soybean
  IC50: 220 µM

## COC(=O)C1=COC(OC2OC(CO)C(O)C(O)C2O)C2C1CCC2(C)O (centres unmarked) [Compound 3, Mussaenoside]
[1]
  inhibition: 9%
15-LOX from soybean; [4]
  15-LOX assay % inhibition: 37%

## COc1ccc(-c2cc(=O)c3c(O)c(OC)c(O)cc3o2)cc1 [Compound 5, Pectolinarigenin]
[1]
  IC50: 230 µM
15-LOX from soybean
  15-LOX assay % inhibition: 46%
Staphylococcus aureus
  IC50: 49.8 µM
[2]
  IC50: 32 µM
Plasmodium falciparum K1
  IC50: 41.8 µM
[3]
  cytotoxicity against MRC-5 cells: not cytotoxic

## COc1ccc(-c2cc(=O)c3c(O)c(OC)c(O[C@@H]4O[C@H](CO[C@@H]5O[C@@H](C)[C@H](O)[C@@H](O)[C@H]5O)[C@@H](O)[C@H](O)[C@H]4O)cc3o2)cc1 [Compound 6, Pectolinarin]
[1]
  inhibition: 48%
15-LOX from soybean; read-out: 15-LOX IC50
  IC50: 250 µM

## COC(=O)c1ccc(O)cc1 [Compound 7, 4-Hydroxy benzoic acid methyl ester]
[1]
  inhibition: 47%
15-LOX from soybean; [4]
  15-LOX assay % inhibition: 30%
